Results reported in PMC6581923 (Journal of Molecular Neuroscience, 2018).

Experiments:
PAC1-R = target: T1, PAC1-R (Homo sapiens, UniProt P41586); experiment: cAMP accumulation assay in PAC1-CHO cells; assay type: cell-based; settings: DMEM, 37 °C, 5-10 min, enzyme immunoassay for cAMP, % of maximal cAMP level with PACAP27, means ± SEM of four experiments, read-out: EC50 (activation of PAC1-R, cAMP accumulation)
T1 construct: expressed in transfected cells; host or cells: PAC1-CHO cells (CHO cells expressing PAC1-R); That they are transfected is inferred from the cell line's name
T1 sequence (P41586 21-468): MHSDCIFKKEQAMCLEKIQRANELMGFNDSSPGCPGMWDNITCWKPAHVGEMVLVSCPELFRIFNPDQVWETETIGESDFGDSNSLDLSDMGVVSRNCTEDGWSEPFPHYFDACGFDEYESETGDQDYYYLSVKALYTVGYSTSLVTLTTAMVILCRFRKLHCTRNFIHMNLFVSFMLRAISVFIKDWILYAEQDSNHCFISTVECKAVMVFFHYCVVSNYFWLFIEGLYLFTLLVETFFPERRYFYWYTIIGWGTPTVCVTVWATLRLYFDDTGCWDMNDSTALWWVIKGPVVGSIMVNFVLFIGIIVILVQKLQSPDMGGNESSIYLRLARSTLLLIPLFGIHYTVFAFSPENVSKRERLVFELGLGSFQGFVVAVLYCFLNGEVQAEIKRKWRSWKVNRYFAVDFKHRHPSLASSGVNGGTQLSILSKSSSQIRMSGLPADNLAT
Experimental: PAC1-CHO cells cultured in Dulbecco’s Modified Eagle’s Medium (DMEM) at 37 °C were scraped off the surface with rubber policeman, washed twice with PBS and the density of the cells was adjusted to 2 × 10^6 /mL. Peptides were added to 500 uL cells suspension with the corresponding varying working concentrations of the detected factor. After incubation at 37 °C for 5-10 min cells were harvested and the lysates were subjected to cAMP quantification using the enzyme immunoassay kit for cAMP (Biyuntian, Shanghai, China), following the manufacturer’s instructions. Protein concentration of each sample was determined using BCA assay, and the cAMP level of each sample was calculated following the formula: cAMP level (pmol/mg protein) = cAMP concentration (pmol/mL)/protein concentration (mg/mL). The cAMP level in each sample was plotted as the percentage (%) of the maximal cAMP level in cells treated with PACAP27 versus the logarithmic value of the peptide concentrations. All experiments were run with at least four parallel samples and were repeated three times.
The data are means ± SEM of four experiments

[1] = ref Steingart et al. [2000]; cited from earlier work
From the text: VIP is an important neuromodulator along the visual transmission pathways, not only in the retina, but all the way to the cortex where it influences visual information processing (Galletti and Fattori [2018]; Wilson and Glickfeld [2014]). Regarding retinoprotection, a few studies i ...

| Molecule | EC50 (PAC1-R) | Protection against a variety of stress factors [1] |
| --- | --- | --- |
| CC[C@H](C)[C@H](NC(=O)[C@H](CO)NC(=O)[C@H](CC(N)=O)NC(=O)[C@H](CC(C)C)NC(=O)[C@H](Cc1ccc(O)cc1)NC(=O)[C@H](CCCCN)NC(=O)[C@H](CCCCN)NC(=O)[C@@H](NC(=O)[C@H](C)NC(=O)[C@H](CCSC)NC(=O)[C@H](CCC(N)=O)NC(=O)[C@H](CCCCN)NC(=O)[C@H](CCCN=C(N)N)NC(=O)[C@H](CC(C)C)NC(=O)[C@H](CCCN=C(N)N)NC(=O)[C@@H](NC(=O)[C@H](Cc1ccc(O)cc1)NC(=O)[C@H](CC(N)=O)NC(=O)[C@H](CC(=O)O)NC(=O)[C@@H](NC(=O)[C@H](Cc1ccccc1)NC(=O)[C@@H](NC(=O)[C@H](C)NC(=O)[C@H](CC(=O)O)NC(=O)[C@H](CO)NC(=O)[C@@H](N)Cc1c[nH]cn1)C(C)C)[C@@H](C)O)[C@@H](C)O)C(C)C)C(=O)N[C@@H](CC(C)C)C(=O)N[C@@H](CC(N)=O)C(N)=O [VIP, vasoactive intestinal peptide, reference compound] | 30.1 ± 4.1 nM |  |
| activity-dependent neurotrophic protein (protein, UniProt Q9H2P0 1-1102, looked up) Activity-dependent …: MFQLPVNNLGSLRKARKTVKKILSDIGLEYCKEHIEDFKQFEPNDFYLKNTTWEDVGLWDPSLTKNQDYRTKPFCCSACPFSSKFFSAYKSHFRNVHSEDFENRILLNCPYCTFNADKKTLETHIKIFHAPNASAPSSSLSTFKDKNKNDGLKPKQADSVEQAVYYCKKCTYRDPLYEIVRKHIYREHFQHVAAPYIAKAGEKSLNGAVPLGSNAREESSIHCKRCLFMPKSYEALVQHVIEDHERIGYQVTAMIGHTNVVVPRSKPLMLIAPKPQDKKSMGLPPRIGSLASGNVRSLPSQQMVNRLSIPKPNLNSTGVNMMSSVHLQQNNYGVKSVGQGYSVGQSMRLGLGGNAPVSIPQQSQSVKQLLPSGNGRSYGLGSEQRSQAPARYSLQSANASSLSSGQLKSPSLSQSQASRVLGQSSSKPAAAATGPPPGNTSSTQKWKICTICNELFPENVYSVHFEKEHKAEKVPAVANYIMKIHNFTSKCLYCNRYLPTDTLLNHMLIHGLSCPYCRSTFNDVEKMAAHMRMVHIDEEMGPKTDSTLSFDLTLQQGSHTNIHLLVTTYNLRDAPAESVAYHAQNNPPVPPKPQPKVQEKADIPVKSSPQAAVPYKKDVGKTLCPLCFSILKGPISDALAHHLRERHQVIQTVHPVEKKLTYKCIHCLGVYTSNMTASTITLHLVHCRGVGKTQNGQDKTNAPSRLNQSPSLAPVKRTYEQMEFPLLKKRKLDDDSDSPSFFEEKPEEPVVLALDPKGHEDDSYEARKSFLTKYFNKQPYPTRREIEKLAASLWLWKSDIASHFSNKRKKCVRDCEKYKPGVLLGFNMKELNKVKHEMDFDAEWLFENHDEKDSRVNASKTADKKLNLGKEDDSSSDSFENLEEESNESGSPFDPVFEVEPKISNDNPEEHVLKVIPEDASESEEKLDQKEDGSKYETIHLTEEPTKLMHNASDSEVDQDDVVEWKDGASPSESGPGSQQVSDFEDNTCEMKPGTWSDESSQSEDARSSKPAAKKKATMQGDREQLKWKNSSYGKVEGFWSKDQSQWKNASENDERLSNPQIEWQNSTIDSEDGEQFDNMTDGVAEPMHGSLAGVKLSSQQA |  | strong protection against a variety of stress factors |
